Assay results: patent US9156860B2, “Boron-containing small molecules” (Anacor Pharmaceuticals, Inc., priority 2011, dated 2015)

How the values were obtained:
[1] = tested on: adult cat flea (Ctenocephalides felis); assay: Example 7: therapeutic efficacy and speed of kill against adult cat flea infestations on dogs; format: in vivo; settings: 25 mg/kg oral
Experimental: The therapeutic efficacy and speed of kill of 7, administered orally at a point dose of 25 mg/kg bodyweight, was evaluated against adult cat flea (Ctenocephalides felis) infestations on dogs. Twelve (12) male and female beagle dogs were allocated to one of four treatment groups (n=3 dogs per group). Group A was untreated, negative control; groups B, C and D received 7. On Day −1, all dogs were infested with approximately 100 unfed, adult fleas (approximately 50% male and 50% female). On Day 0, dogs in groups B, C and D were orally administered gelatin capsules containing 7, at a point dose of 25 mg/kg (50% technical active, 47% microcrystalline cellulose and 3% croscarmellose sodium, w/w). At eight (8) hours post-treatment, fleas were counted and removed from dogs in group B; at twelve (12) hours post-treatment, fleas were counted and removed from dogs in group C; and at twenty-four (24) hours post-treatment, fleas were counted and removed from dogs in groups A and D. GM percent efficacy of treatments against fleas was calculated using the following formula: […]

[2] = tested on: adult American dog tick (Dermacentor variabilis); assay: Example 6: efficacy against adult American dog tick infestations on dogs, 48 h and 72 h counts; format: in vivo; settings: 50 mg/kg oral
Experimental: […] Twelve (12) male and female beagle dogs were allocated to three treatment groups: Untreated, negative control A; 7 group B; and 7 group C (n=4 dogs per group). Dogs were infested with approximately 50 unfed, adult D. variabilis ticks on Days −1, 5, 12, 19 and 28. For 7 group B dogs, tick counts and classification were conducted at 48 hour post-treatment or post-infestation intervals on Days 2, 7, 14, 21 and 30. For negative control group A and 7 group C dogs, tick counts and classification were conducted at 72 hour post-treatment or post-infestation intervals on Days 3, 8, 15, 22 and 31. On Day 0, dogs in groups B and C were orally administered gelatin capsules containing 7 (50% technical active, 47% microcrystalline cellulose and 3% croscarmellose sodium, w/w) at a point dose of 50 mg/kg. Both 48 hour and 72 hour counts in the treated groups were adjusted to counts from the same 72 hour negative control group. GM percent efficacy of treatments was calculated using the following formula:

[3] = Tolerability of oral treatment in dogs; format: in vivo, beagle dogs
Experimental: The therapeutic (knockdown) and residual efficacy of 7, administered orally at a point dosages of 5 and 25 mg/kg bodyweight, was evaluated against adult American dog tick (D. variabilis) and cat flea (C. felis) infestations on dogs. Sixteen (16) male and female beagle dogs were allocated to one of four treatment groups: Untreated control group (n=4 dogs); 7, 5 mg/kg liquid oral dosage form (n=4 dogs); 7, 25 mg/kg liquid oral dosage form (n=4 dogs); and 7, 25 mg/kg solid oral dosage form. Liquid dosage forms were prepared by dissolving 7 in a solution of 55% polyethylene glycol-300, 35% propylene glycol and 10% water at 25 mg/ml. Solid oral dosage form was prepared by thoroughly mixing 7 with microcrystalline cellulose and croscarmellose sodium (50:47:3, w/w) and placing into size 00 gelatin capsules. On Day 0, all dogs were orally administered 7 at the prescribed point dosages. Twenty-four (24) hours before treatment (Day −1), all dogs were infested with approximately 50 unfed, adult-stage American dog ticks (D. variabilis; approximately 50% male and 50% female). On Day 2, approximately 48 hours after treatment, ticks were removed and counts were conducted to determine the number and life-status classification of ticks present on all dogs (normal, moribund or dead; attached or detached). For all groups, dogs were re-infested with approximately 50 unfed, adult D. variabilis ticks on Days 5 and 12, with tick classification, counts and removal on Days 7 and 14 (approximately 48 hours after each infestation). For negative control and 7 (25 mg/kg solid oral dosage form) groups, dogs were re-infested with approximately 50 unfed, adult D. variabilis ticks on Days 19 and 28, with tick classification, counts and removal on Days 21 and 30. Immediately following removal of ticks on Day 30, dogs in the negative control and 7 (25 mg/kg solid oral dosage form) groups were infested with approximately 100 unfed, adult cat fleas (C. felis). Flea counts were conducted approximately 48 hours later, on Day 32.
The therapeutic (knockdown) and residual efficacy of 7 and 8, each administered orally at a point dose of either 25 mg/kg or 50 mg/kg bodyweight, was evaluated against adult tick (Dermacentor variabilis and Rhipicephalus sanguineus) infestations on dogs. Twenty (20) male and female beagle dogs were allocated to one of five treatment groups, four (4) dogs per group: Untreated control; 7, 25 mg/kg; 7, 50 mg/kg; 8, 25 mg/kg; and 8, 50 mg/kg. On Day −1, all dogs were infested with approximately 50 unfed, adult D. variabilis ticks. On Day 0, dogs were orally administered gelatin capsules containing either 7 or 8 (50% technical active, 47% microcrystalline cellulose and 3% croscarmellose sodium, w/w) so as to achieve the desired point dosages. Ticks were counted and classified on all dogs, but not removed, on Day 1 (approximately 24 hours after treatment). On Day 2, approximately 48 hours after treatment, ticks were counted, classified and removed. Dogs were re-infested with the same number of D. variabilis ticks on Days 5, 12 and 19 with corresponding 48 hour post-infestation tick counts on Days 7, 14 and 21. Dogs were infested with approximately 50 unfed, adult brown dog ticks (Rhipicephalus sanguineus; approximately 50% male and 50% female) on Days 15 and 28, with corresponding 48 hour post-infestation tick counts on Days 17 and 30. GM percent efficacy of treatments against both tick species was calculated using the following formula: […]
The efficacy of 7, administered orally at a point dose of 25 mg/kg bodyweight, was evaluated against adult tick (Dermacentor variabilis) infestations. Twelve (12) male and female beagle dogs were allocated to three treatment groups: Untreated, negative control A; 7 group B; and 7 group C (n=4 dogs per group). Dogs were infested with approximately 50 unfed, adult D. variabilis ticks on Days −1, 5, 12, 19 and 28. […]

CC1(C)OB(O)c2ccc(C3=NOC(c4cc(Cl)c(Cl)c(Cl)c4)(C(F)(F)F)C3)cc21 (racemic) [Compound 7, 3,3-Dimethyl-5-(5-(3,4,5-trichlorophenyl)-5-(trifluoromethyl)-4,5-dihydroisoxazol-3-yl)benzo[c][1,2]oxaborol-1(3H)-ol]
% efficacy ([1]; 8 hours post-treatment): (11.8) %
Geometric mean group live flea count ([1]; 8 hours post-treatment): 75.6
Geometric mean group live flea count ([1]; 12 hours post-treatment): 0.3
Geometric mean group live flea count ([1]; 24 hours post-treatment): 0.0
Geometric mean group live tick count ([2]; Week 0, 48 h count (Day 2)): 0.3
Geometric mean group live tick count ([2]; Week 0, 72 h count (Day 3)): 0.0
% efficacy ([2]; Week 1, 48 h count (Day 7)): (85.1) %
Geometric mean group live tick count ([2]; Week 1, 48 h count (Day 7)): 2.6
% efficacy ([2]; Week 1, 72 h count (Day 8)): (100) %
Geometric mean group live tick count ([2]; Week 1, 72 h count (Day 8)): 0.0
% efficacy ([2]; Week 2, 48 h count (Day 14)): (78.3) %
Geometric mean group live tick count ([2]; Week 2, 48 h count (Day 14)): 6.1
% efficacy ([2]; Week 2, 72 h count (Day 15)): (99.3) %
Geometric mean group live tick count ([2]; Week 2, 72 h count (Day 15)): 0.2
% efficacy ([2]; Week 3, 48 h count (Day 21)): (13.0) %
Geometric mean group live tick count ([2]; Week 3, 48 h count (Day 21)): 10.7
% efficacy ([2]; Week 3, 72 h count (Day 22)): (100) %
Geometric mean group live tick count ([2]; Week 3, 72 h count (Day 22)): 0.0
% efficacy ([2]; Week 4, 48 h count (Day 30)): (35.5) %
Geometric mean group live tick count ([2]; Week 4, 48 h count (Day 30)): 16.3
Geometric mean group live tick count ([2]; Week 4, 72 h count (Day 31)): 0.8
Residual efficacy using 72 hour count intervals ([2]; through week 3 (Day 22)): > 99%
Residual efficacy at 48 hour intervals ([2]; through week 4 (Day 30)): < 90%
tolerability ([3]; oral 25 mg/kg, Example 7): well tolerated
tolerability ([3]; oral 50 mg/kg, Example 6): well tolerated
tolerability ([3]; oral 5 or 25 mg/kg, Example 4): well tolerated
tolerability ([3]; oral 25 or 50 mg/kg, Example 5): well tolerated
